Assay type in all cases: cell-based
Assay [1] deals with T1, Peroxisome proliferator-activated receptor gamma (Homo sapiens, UniProt P37231).
T1 sequence (P37231 whole entry): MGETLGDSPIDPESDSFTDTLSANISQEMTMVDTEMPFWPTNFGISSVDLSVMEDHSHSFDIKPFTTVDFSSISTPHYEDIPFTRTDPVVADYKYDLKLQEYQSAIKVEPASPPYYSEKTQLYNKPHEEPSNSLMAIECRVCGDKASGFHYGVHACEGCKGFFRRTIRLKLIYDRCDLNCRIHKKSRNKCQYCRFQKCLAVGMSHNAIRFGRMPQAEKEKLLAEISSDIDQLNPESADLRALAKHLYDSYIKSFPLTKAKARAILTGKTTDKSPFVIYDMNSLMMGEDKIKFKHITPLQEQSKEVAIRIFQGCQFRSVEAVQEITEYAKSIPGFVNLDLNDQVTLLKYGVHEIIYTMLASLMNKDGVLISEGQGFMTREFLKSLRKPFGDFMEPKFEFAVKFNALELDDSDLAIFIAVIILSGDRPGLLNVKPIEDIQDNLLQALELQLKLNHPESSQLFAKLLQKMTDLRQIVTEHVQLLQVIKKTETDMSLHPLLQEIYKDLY
The assay can be described thus: Agonist activity at human PPARgamma transfected in african green monkey COS7 cells assessed transactivation incubated for 16 hrs by luciferase assay.

In assay [2] the target is T2, Peroxisome proliferator-activated receptor alpha (Homo sapiens, UniProt Q07869).
T2 sequence (Q07869 whole entry): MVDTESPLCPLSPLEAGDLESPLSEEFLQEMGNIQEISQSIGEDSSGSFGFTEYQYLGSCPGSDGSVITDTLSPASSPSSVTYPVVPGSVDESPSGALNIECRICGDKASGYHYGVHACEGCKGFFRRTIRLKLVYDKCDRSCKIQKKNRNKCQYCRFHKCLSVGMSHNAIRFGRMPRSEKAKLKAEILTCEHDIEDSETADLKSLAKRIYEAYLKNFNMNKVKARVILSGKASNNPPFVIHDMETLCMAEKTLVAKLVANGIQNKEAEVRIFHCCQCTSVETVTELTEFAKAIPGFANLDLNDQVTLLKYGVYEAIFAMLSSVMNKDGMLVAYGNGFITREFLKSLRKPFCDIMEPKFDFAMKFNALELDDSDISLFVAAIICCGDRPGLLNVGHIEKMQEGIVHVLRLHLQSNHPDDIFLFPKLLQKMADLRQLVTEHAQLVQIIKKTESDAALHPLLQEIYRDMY
The assay can be described thus: Agonist activity at human PPARalpha transfected in african green monkey COS7 cells assessed transactivation incubated for 16 hrs by luciferase assay.

Assay [3] concerns the target Peroxisome proliferator-activated receptor delta (Homo sapiens, UniProt Q03181). The experiment in a line: Agonist activity at human PPARdelta transfected in african green monkey COS7 cells assessed transactivation incubated for 16 hrs by luciferase assay.

Chain of Peroxisome proliferator-activated receptor delta (Q03181 whole entry): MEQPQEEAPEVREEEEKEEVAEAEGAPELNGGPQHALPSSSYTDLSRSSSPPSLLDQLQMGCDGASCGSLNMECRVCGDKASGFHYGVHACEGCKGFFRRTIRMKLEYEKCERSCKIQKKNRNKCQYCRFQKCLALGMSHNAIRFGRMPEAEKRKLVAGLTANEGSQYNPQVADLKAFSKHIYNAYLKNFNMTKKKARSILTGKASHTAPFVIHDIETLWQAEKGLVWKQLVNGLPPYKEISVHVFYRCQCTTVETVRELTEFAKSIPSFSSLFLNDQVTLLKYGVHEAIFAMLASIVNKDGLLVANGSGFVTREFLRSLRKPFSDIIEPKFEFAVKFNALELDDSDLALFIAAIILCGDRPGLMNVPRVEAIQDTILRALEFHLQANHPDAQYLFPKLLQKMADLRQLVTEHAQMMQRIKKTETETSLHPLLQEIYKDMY

By EC50 is commonly meant the midpoint of the concentration-response curve. As to `CSc1ccc(N2CC(=O)N(Cc3cc(C)c(OC(C)(C)C(=O)O)c(C)c3)C2=O)cc1`, the EC50 amounted to 1170 nM in assay [1], 2.7 nM in assay [2] and 8.2 nM in assay [3]. Turning to `Cc1cc(N2C(=O)CN(c3ccc(C(F)(F)F)cc3)C2=O)cc(C)c1OC(C)(C)C(=O)O`, the EC50 in assay [1] is above 5000 nM.

As to `Cc1cc(CN2C(=O)CN(c3ccc(C(F)(F)F)cc3)C2=O)cc(C)c1OC(C)C(=O)O` (stereo unspecified), the EC50 in assay [1] is above 5000 nM; in assay [3], 8.4 nM. In the case of `Cc1cc(CN2C(=O)CN(c3ccccc3C(F)(F)F)C2=O)cc(C)c1OC(C)(C)C(=O)O`, the EC50 in assay [1] and in assay [2] was above 5000 nM throughout. For the compound `Cc1cc(CCN2C(=O)CN(c3ccc(C(F)(F)F)cc3)C2=O)cc(C)c1OC(C)(C)C(=O)O`, it took 277 nM to reach a half-maximal effect in assay [1] (EC50). On the same count and under the same terms, under `Cc1cc(CN2C(=O)CN(c3ccc(OC(F)(F)F)cc3)C2=O)cc(C)c1OC(C)(C)C(=O)O` stands 1390 nM.

Turning to `Cc1cc(Cn2ncn(-c3ccc(OC(F)(F)F)cc3)c2=O)cc(C)c1OC(C)(C)C(=O)O`, a half-maximal effect in assay [2] (EC50) was put at 7.4 nM.

These data come from ChEMBL document CHEMBL5338805, “Discovery of the First Subnanomolar PPARα/δ Dual Agonist for the Treatment of Cholestatic Liver Diseases” (J Med Chem, 2023).
